Measurements from patent US20230365682A1, “COMBINATION THERAPY FOR TREATING COLORECTAL CANCER” (Gilead Sciences, Inc., priority 2022, published 2023).
Entries after “also recorded” stand apart in the source; their conditions may differ.

Tests used:
[1] = test system: colorectal cancer cells; assay: Cell growth inhibition (Cell-titer Glo, ATP); assay type: cell-based; details: 24, 48, and 72 hours of drug treatment; normalized to DMSO control
Experimental: Tumor cells were treated with titrations of irinotecan, oxaliplatin, or vehicle control and monitored for growth after 24, 48, and 72 hours of drug treatment. Cell growth was indirectly determined using a commercially available reagent (Promega, Cell-titer Glo®) which measures intracellular adenosine triphosphate (ATP) levels and directly correlates to the number of live cells. […] DMSO=dimethyl sulfoxide; Oxa=oxaliplatin; SN-38=irinotecan.

[2] = test system: LS 174T cells; assay: Flow cytometry of prophagocytic receptors (CALR, PS) after 24 hours of drug; assay type: cell-based; details: 24 hours incubation; CALR and PS staining
Experimental: (§1) A. LS 174T cells were incubated with titrations of irinotecan for 24 hours, washed, and stained for CALR and PS. Flow cytometry was used to analyze and quantify the frequency of stained cells. The shaded areas indicate reported IC50 for each drug. B. LS-174T or HCT-116 cells were pretreated for 24 hours with irinotecan or oxaliplatin at the indicated concentration. The tumor cells were washed, CFSE labeled and cocultured with monocyte-derived macrophages at a 2:1 target to effector ratio for 2 hours. The phagocytic index, defined as the percentage of the macrophages that engulfed tumor cells out of total macrophages, was quantified using flow cytometry. 5F9, Magro=magrolimab; CALR=calreticulin; CFSE=carboxyfluorescein succinimidyl ester; hr=hour; IC50=half-maximal inhibitory concentration; MFI=median fluorescence intensity; PBS=phosphate buffered saline; PS=phosphatidyl serine; SN 38=irinotecan.

[3] = test system: LS-174T or HCT-116 cells; assay: In vitro phagocytosis of pretreated tumor cells by monocyte-derived macrophages; assay type: cell-based; details: 24 hours pretreatment; 2:1 target to effector ratio, 2 hours coculture
Experimental: as §1

[4] = test system: mCRC; details: cited from earlier work
[5] = Clinical safety of magrolimab; details: human, in vivo
Experimental: In the first-in-human study of magrolimab in patients with solid tumors and lymphomas, after an initial priming dose of 1 mg/kg on the first day, magrolimab was tested as a monotherapy at weekly doses of up to 45 mg/kg. The use of an initial 1 mg/kg priming dose was integrated into the dosing regimen to mitigate the on-target anemia induced by CD47 blockade. An initial priming dose leads to elimination of aged RBCs that are sensitive to CD47 blockade and triggers reticulocytosis of young RBCs that are not affected by CD47 blockade (Chen, et al., Blood (ASH Annual Meeting Abstracts) (2018) 132 (Suppl 1):2327). […] Based on PK-PD modeling, a maintenance dose of 30 mg/kg every 2 weeks is expected to provide more than 90% occupancy of the CD47 receptor in peripheral blood and tumor tissues and thus is expected to provide maximal efficacy while maintaining adequate safety. In solid tumors where the combination therapy is given according to 3-week cycles, dosing of magrolimab every 3 weeks optimizes patient and caregiver convenience. […]
Up to 6 other patients will then be enrolled and evaluated at a lower dose level in the same manner. • Once the RP2D is determined, the sponsor will open the Randomized Cohort.

[6] = with 1 mg/kg priming dose, then repeated therapeutic doses; cited from earlier work
[7] = continuation on bevacizumab versus standard chemotherapy alone

For `CCc1c2c(nc3ccc(OC(=O)N4CCC(N5CCCCC5)CC4)cc13)-c1cc3c(c(=O)n1C2)COC(=O)[C@]3(O)CC` [irinotecan], the growth inhibition [1] was “growth inhibition; also recorded: more likely to undergo growth inhibition”, the “cell surface expression of prophagocytic receptors” value [2] was “upregulates the expression of prophagocytic receptors; also recorded: more effective than oxaliplatin” and the “phagocytosis of colorectal cancer cells” value [3] was “promotes the in vitro phagocytosis of colorectal cancer cells; also recorded: more effective than oxaliplatin”.

For `O=C1[O][Pt]2([NH][C@@H]3CCCC[C@H]3[NH]2)[O]C1=O` [oxaliplatin], the growth inhibition [1] was “growth inhibition”.

In the case of “bevacizumab: humanized monoclonal antibody targeting circulatory VEGF and preventing tumor angiogenesis”, the PFS ([4]; continuation on bevacizumab after progression on first-line chemotherapy, standard chemotherapy alone 4.1 months) is given as 5.7 months, the OS ([4]; continuation on bevacizumab after progression on first-line chemotherapy, standard chemotherapy alone 9.9 months) is given as 11.2 months and the “OS HR” value [4, 7] is given as 0.81. The “PFS HR” value [4, 7] was 0.68.

For “magrolimab: humanized anti-CD47 mAb (human IgG4) that blocks the interaction of CD47 with its receptor and enables phagocytosis of human cancer cells”, the dose-dependent toxicities [5] is given as “no dose-dependent toxicities have been observed” and the anemia [6] is given as “initial, transient, and mild anemia that generally normalizes back to baseline over several weeks”.
